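Compound exposure: 48 hours, 5 concentrations, 96-well plates. Abbreviation: GI50, concentration required for 50% inhibition of growth.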 The source made the active and inactive calls. Rule as the data show it: active = GI50 up to about 1.1 µM and inactive = higher.
Experiments:
Assay in all cases: NCI tumour cell line growth inhibition, 48 h
CCRF-CEM = test system: CCRF-CEM
MCF7 = test system: MCF7
NCI-H522 = test system: NCI-H522
U-251 = test system: U-251
K562 = test system: K562
RPMI-8226 = test system: RPMI-8226
OVCAR-8 = test system: OVCAR-8
MOLT-4 = test system: MOLT-4
IGROV-1 = test system: IGROV-1
COLO 205 = test system: COLO 205
SK-OV-3 = test system: SK-OV-3
HCT-116 = test system: HCT-116
SNB-19 = test system: SNB-19
EKVX = test system: EKVX
HOP-62 = test system: HOP-62
KM12 = test system: KM12
NCI-H226 = test system: NCI-H226
SR = test system: SR
ACHN = test system: ACHN
TK-10 = test system: TK-10

Row | SMILES | GI50 (CCRF-CEM) | GI50 (MCF7) | GI50 (NCI-H522) | GI50 (U-251) | GI50 (K562) | GI50 (RPMI-8226) | GI50 (OVCAR-8) | GI50 (MOLT-4) | GI50 (IGROV-1) | GI50 (COLO 205) | GI50 (SK-OV-3) | GI50 (HCT-116) | GI50 (SNB-19) | GI50 (EKVX) | GI50 (HOP-62) | GI50 (KM12) | GI50 (NCI-H226) | GI50 (SR) | GI50 (ACHN) | GI50 (TK-10)
1 | Nc1nc(=O)c2c([nH]1)NCC(CNc1ccc(C(=O)N[C@@H](CCC(=O)O)C(=O)O)cc1)N2C=O (some centres not stated) [LEUCOVORIN CALCIUM] | 39.5 µM (inactive) | > 125 µM (inactive) | > 125 µM (inactive) | > 125 µM (inactive) | 39.5 µM (inactive) | > 125 µM (inactive) | 121 µM (inactive) | > 125 µM (inactive) | > 125 µM (inactive) | > 125 µM (inactive) | > 125 µM (inactive) | > 125 µM (inactive) | > 125 µM (inactive) | > 125 µM (inactive) | > 125 µM (inactive) | > 125 µM (inactive) | 81.1 µM (inactive) | – | – | –
2 | CC(C)OP(=O)(OC(C)C)/C(=N/Nc1ccc([N+](=O)[O-])cc1)Nc1ccc(N/C(=N\Nc2ccc([N+](=O)[O-])cc2)P(=O)(OC(C)C)OC(C)C)cc1 | 2.95 µM (inactive) | – | 6.22 µM (inactive) | 13.2 µM (inactive) | 4.79 µM (inactive) | 5.24 µM (inactive) | 13.6 µM (inactive) | 2.58 µM (inactive) | 4.43 µM (inactive) | 5.2 µM (inactive) | – | 4.15 µM (inactive) | 27.4 µM (inactive) | 26.9 µM (inactive) | > 100 µM (inactive) | 7.93 µM (inactive) | 74.1 µM (inactive) | 5.66 µM (inactive) | 23.4 µM (inactive) | 89.9 µM (inactive)
3 | O=S(=O)(N=S(c1ccccc1)c1ccccc1)c1ccccc1 | > 100 µM (inactive) | > 100 µM (inactive) | – | > 100 µM (inactive) | > 100 µM (inactive) | > 100 µM (inactive) | > 100 µM (inactive) | > 100 µM (inactive) | – | > 100 µM (inactive) | – | > 100 µM (inactive) | > 100 µM (inactive) | > 100 µM (inactive) | > 100 µM (inactive) | > 100 µM (inactive) | > 100 µM (inactive) | > 100 µM (inactive) | > 100 µM (inactive) | > 100 µM (inactive)
4 | Nc1ncnc2c1cnn2Cc1ccc(Cl)cc1 | > 100 µM (inactive) | > 100 µM (inactive) | 92 µM (inactive) | > 100 µM (inactive) | > 100 µM (inactive) | – | > 100 µM (inactive) | > 100 µM (inactive) | – | > 100 µM (inactive) | – | > 100 µM (inactive) | > 100 µM (inactive) | – | – | > 100 µM (inactive) | > 100 µM (inactive) | – | > 100 µM (inactive) | > 100 µM (inactive)
5 | NC(CCCCO)C(=O)O (configuration not stated) | > 100 µM (inactive) | > 100 µM (inactive) | > 100 µM (inactive) | > 100 µM (inactive) | > 100 µM (inactive) | > 100 µM (inactive) | > 100 µM (inactive) | – | > 100 µM (inactive) | > 100 µM (inactive) | > 100 µM (inactive) | – | > 100 µM (inactive) | > 100 µM (inactive) | > 100 µM (inactive) | > 100 µM (inactive) | > 100 µM (inactive) | > 100 µM (inactive) | > 100 µM (inactive) | > 100 µM (inactive)
6 | CCCCCCCCCCCCCCCCCCOP(=O)([O-])OCC[N+](C)(C)C [OCTADECYLPHOSPHONOCHOLINE] | 0.366 µM (active) | 0.382 µM (active) | 0.419 µM (active) | 0.695 µM (active) | 0.957 µM (active) | 0.276 µM (active) | 1.02 µM (active) | 0.295 µM (active) | 0.614 µM (active) | 0.146 µM (active) | 5.69 µM (inactive) | 0.826 µM (active) | 0.849 µM (active) | 2.14 µM (inactive) | 0.301 µM (active) | 0.273 µM (active) | 0.787 µM (active) | – | < 0.0488 µM (active) | –
7 | COC(=O)CCC(=O)c1ccc2c(c1)CCC2 | > 100 µM (inactive) | > 100 µM (inactive) | > 100 µM (inactive) | > 100 µM (inactive) | > 100 µM (inactive) | > 100 µM (inactive) | > 100 µM (inactive) | > 100 µM (inactive) | > 100 µM (inactive) | – | > 100 µM (inactive) | > 100 µM (inactive) | > 100 µM (inactive) | > 100 µM (inactive) | > 100 µM (inactive) | – | – | > 100 µM (inactive) | > 100 µM (inactive) | > 100 µM (inactive)
8 | C=C1C(=O)O[C@@H]2[C@H](O)[C@@H](C)[C@@H]3C=CC(=O)[C@@]3(C)[C@H](OC(=O)C=C(C)C)[C@H]12 | 0.183 µM (active) | 0.56 µM (active) | 0.179 µM (active) | 1.49 µM (inactive) | 0.199 µM (active) | 0.294 µM (active) | 0.421 µM (active) | 0.345 µM (active) | 1.96 µM (inactive) | 0.49 µM (active) | 3.57 µM (inactive) | 0.655 µM (active) | 5.55 µM (inactive) | 1.74 µM (inactive) | 4.35 µM (inactive) | 1.91 µM (inactive) | 2 µM (inactive) | – | – | –
9 | COC(=O)C(NC(=O)c1ccccc1)C(c1c(O)cc(O)cc1O)P(=O)(OC)OC (configuration not stated) | 32 µM (inactive) | – | > 100 µM (inactive) | > 100 µM (inactive) | 27.2 µM (inactive) | 95.9 µM (inactive) | > 100 µM (inactive) | > 100 µM (inactive) | > 100 µM (inactive) | > 100 µM (inactive) | > 100 µM (inactive) | > 100 µM (inactive) | > 100 µM (inactive) | > 100 µM (inactive) | > 100 µM (inactive) | > 100 µM (inactive) | > 100 µM (inactive) | > 100 µM (inactive) | > 100 µM (inactive) | > 100 µM (inactive)
10 | O=C1C[C@@H]2[C@@H](C=CC23CCCC3)N1O | > 100 µM (inactive) | – | > 100 µM (inactive) | > 100 µM (inactive) | > 100 µM (inactive) | > 100 µM (inactive) | > 100 µM (inactive) | > 100 µM (inactive) | > 100 µM (inactive) | > 100 µM (inactive) | > 100 µM (inactive) | > 100 µM (inactive) | > 100 µM (inactive) | > 100 µM (inactive) | > 100 µM (inactive) | > 100 µM (inactive) | > 100 µM (inactive) | – | > 100 µM (inactive) | > 100 µM (inactive)
11 | CC1=C[C@@H]2[C@@H](CC(CO)=C[C@H]3[C@@H]4C(C)(C)[C@]4(OCC(C)C)[C@H](OCC(C)C)[C@@H](C)[C@]23O)C1=O | 0.741 µM (active) | 2.56 µM (inactive) | 2.2 µM (inactive) | 1.5 µM (inactive) | 0.137 µM (active) | – | 1.73 µM (inactive) | 0.646 µM (active) | 2.01 µM (inactive) | 0.243 µM (active) | > 8.32 µM (inactive) | 2.04 µM (inactive) | > 6.01 µM (inactive) | 1.03 µM (active) | 0.206 µM (active) | 2.16 µM (inactive) | 1.36 µM (inactive) | 1.14 µM (inactive) | 1.23 µM (inactive) | 1.82 µM (inactive)

From ChEMBL document CHEMBL1201862, “PubChem BioAssay data set” (2004)
